Laboratory results as given in PMC9468151, “Identification of a binding site on soluble RANKL that can be targeted to inhibit soluble RANK-RANKL interactions and treat osteoporosis” (Nature Communications, 2022).
Several values for one entry are separate records, joined by “and”; a condition that tells them apart may be missing. Equal values may be shown once.

Assays:
[1] = system: sRANKL induced osteoclast differentiation; experiment: In vitro anti-osteoclastogenesis activity determination (TRAP staining); assay type: cell-based, mouse; parameters: key to inhibition of osteoclastogenesis, dose-response (fig. S2a): % inhibition = 100 − (treated−unstimulated)/(untreated−unstimulated)×100; details: for IC50: BMMs, M-CSF + 100 ng/mL sRANKL, 5 days, TRAP staining, read-out: OC IC50 (anti-osteoclastogenesis activity); for inhibition of osteoclastogenesis, dose-response (fig. S2a): three replicate columns
Procedure, shortened: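 Mouse bone-marrow macrophages in 10 ng/mL M-CSF were stimulated with 100 ng/mL sRANKL plus compound at 9 concentrations, refreshed every 2 days, triplicate wells. After 5 days TRAP-stained osteoclasts were counted; inhibition normalised to untreated and unstimulated controls, IC50 by nonlinear regression.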

RAW264.7 cells = experiment: In vitro cytotoxicity assay (MTT); assay type: cell-based, mouse; details: RAW264.7, MTT
Description: MTT assay was used to determine cell viability. RAW264.7 cells in the logarithmic growth phase were cultured in 96-well plates with 6 × 10^3 cells in each well and incubated for 24 h. The surviving cells were then determined by MTT method. […] Cell growth inhibition ratio was calculated as follows: Cellgrowthinhibitionratio%=ODvehicle−ODtreaed/ODvehicle×100%
Cell cytotoxicity CC50 value were conducted by using Nonlinear regression (curve fit) analytic procedure in GraphPad Prism 8.

sRANKL = biological target: T1, sRANKL (Rattus norvegicus, UniProt Q9ESE2, D175N); experiment: Surface plasmon resonance (SPR) assay; assay type: binding; details: immobilized sRANKL, 25 °C
T1 construct: (1) sRANKL (rat 159-318 aa); His6-sumo (N, cleaved yes); made in house; host or cells: Escherichia coli BL21 (DE3)
T1 sequence (Q9ESE2 159-318 D175N): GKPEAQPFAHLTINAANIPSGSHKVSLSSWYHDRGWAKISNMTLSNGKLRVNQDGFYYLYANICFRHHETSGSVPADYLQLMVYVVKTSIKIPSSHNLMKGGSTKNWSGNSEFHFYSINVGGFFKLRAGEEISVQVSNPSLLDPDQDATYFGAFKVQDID
Description: A ProteOn XPR36TM SPR instrument (BioRad Hercules, CA) was used for carrying out SPR assays. sRANKL protein in PBS buffer, pH 7.4, was diluted to 20 nM in 10 mM sodium acetate buffer, pH 5.5 and immobilized in parallelflow channels of a the EDAC/Sulfo-NHS activated surface of a GLH biosensor chip (Bio-Rad) with an amine coupling kit (Bio-Rad). The surface was blocked with 1 M ethanolamine. The final immobilization level for sRANKL was approximately 14,000 RU. A blank immobilization channel in the same GLH biosensor chip was also activated with EDAC/Sulfo-NHS and blocked with 1 M ethanolamine to use as a reference.
Biosensor binding experiments were conducted in filtered and degassed running buffer (PBS containing 0.005% Tween-20, pH 7.4) at 25 °C. Compounds was dissolved in 100% DMSO in appropriate different series concentrations of stock solutions. Before detecting, compounds were diluted in six or five concentrations with running buffer and ensured that the content of DMSO contained in each detected concentration was consistent. Compounds in different concentrations were injected simultaneously at a flow rate at […] for 180 s and 120 s for the association phase, followed by 180 s for the disassociation. Following the compound injection, the chip surface was regenerated with 40 s pulses of 0.85% H3PO4 and running buffer.
ProtedOn Manager 2.0. was used for data analysis. Each set of sensorgrams was globally analyzed using the 1:1 Langmuir binding model to obtain the kinetic rate constants (Kon and Koff). Global kinetic rate constants (ka and kd) were derived for each reaction, and the equilibrium dissociation constant, KD, was calculated using the equation KD = kd/ka.

[2] = biological target: T2, recombinant RANK (mouse extracellular RANK fragment, residues 26-210) (mouse, UniProt O35305 26-210); experiment: pull-down; 120 ug GST-sRANKL on the resin in PBS with 1% BSA, room temperature; compounds (50 uM) or 0.8% DMSO control for 30 min, then 25 ug RANK for 20 min; SDS-PAGE, Coomassie blue; details: both partners purified
T2 construct: RANK (TNFRSF11A), mouse, extracellular fragment, residues 26-210, cloned into pET28a between Nde I and Xho I; In the functional rows the RANK that was present is the endogenous receptor on mouse bone marrow cells; also called soluble RANK
T2 sequence (looked up): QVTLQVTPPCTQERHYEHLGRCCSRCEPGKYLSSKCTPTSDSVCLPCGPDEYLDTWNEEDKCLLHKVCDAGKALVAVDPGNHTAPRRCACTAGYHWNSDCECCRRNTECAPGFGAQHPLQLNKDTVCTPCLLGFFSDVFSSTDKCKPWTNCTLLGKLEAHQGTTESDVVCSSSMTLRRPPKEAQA

| Molecule | IC50 [1] | inhibition of osteoclastogenesis, dose-response (fig. S2a) ([1]; conc. 0.0023464 μM) | inhibition of osteoclastogenesis, dose-response (fig. S2a) ([1]; conc. 0.00774313 μM) | inhibition of osteoclastogenesis, dose-response (fig. S2a) ([1]; conc. 0.0255523 μM) | inhibition of osteoclastogenesis, dose-response (fig. S2a) ([1]; conc. 0.0843226 μM) | inhibition of osteoclastogenesis, dose-response (fig. S2a) ([1]; conc. 0.278265 μM) | inhibition of osteoclastogenesis, dose-response (fig. S2a) ([1]; conc. 0.918274 μM) | inhibition of osteoclastogenesis, dose-response (fig. S2a) ([1]; conc. 3.0303 μM) | inhibition of osteoclastogenesis, dose-response (fig. S2a) ([1]; conc. 10 μM) | inhibition of osteoclastogenesis, dose-response (fig. S2a) ([1]; conc. 33 μM) | CC50 (RAW264.7 cells) [µM] | Kd (sRANKL) [µM] | binding result [2] |
| --- | --- | --- | --- | --- | --- | --- | --- | --- | --- | --- | --- | --- | --- |
| CCOC(=O)c1sc(NC(=O)C(=NNc2cccc(C(=O)O)c2)C(C)=O)nc1C [S3-03] | 0.36 µM | 4.313 and 4.012 and -1.404 | 4.012 and 1.304 and -0.5015 | 11.5346 and 24.4734 and 19.659 | 33.8014 and 30.1906 and 37.1113 | 47.6429 and 50.0502 and 47.342 | 51.8556 and 56.9709 and 59.3781 | 77.4323 and 79.5386 and 69.007 | 99.0973 and 98.7964 (2×) | 100 | 33.9 | 33.7 | – |
| CCOC(=O)c1sc(NC(=O)C(=NNc2ccc(C(=O)O)cc2)C(C)=O)nc1C [S3-02] | 1.24 µM and > 1 µM | 0.3058 and -2.446 and -0.3058 | 12.2324 and 9.48 and 14.6789 | 19.5719 and 20.7951 and 20.4893 | 19.5719 and 21.7125 and 20.1835 | 22.9358 and 29.3578 (2×) | 32.1101 and 33.9449 and 35.474 | 59.0214 and 60.5505 and 61.1621 | 81.6514 and 80.7339 and 87.7676 | 100 | 41.9 | 38 | – |
| CC(=O)C(=NNc1ccccc1C(=O)O)C(=O)Nc1nc(C)c(C(=O)O)s1 [S3-01] | – | 5.532 (2×) and 2.66 | 13.1915 and 15.7447 and 16.7021 | 9.043 and 12.234 and 13.5106 | 12.234 and 16.7021 and 15.1064 | 42.234 and 40.3192 and 42.5532 | 61.7021 and 57.234 and 62.3404 | 74.1489 and 77.0213 and 79.8936 | 99.3617 (2×) and 99.0426 | 100 | 62.3 | 211 | – |
| CC(=O)C(=NNc1ccccc1C(=O)O)C(=O)Nc1nccs1 [S3-09] | – | -0.7659 (2×) and 2.516 | 0.2188 and -0.1094 and 1.86 | 6.455 and 3.501 and 2.845 | 10.3939 and 2.845 and 7.44 | 45.186 and 26.8053 and 32.3851 | 57.9869 (2×) and 48.7965 | 69.1466 and 68.8184 and 61.9256 | 80.6346 and 77.0241 and 79.6499 | 100 | > 100 | 33.7 | – |
| CCOC(=O)c1sc(NC(=O)C(=NNc2ccccc2C(=O)OC)C(C)=O)nc1C [S3-00] | – | 7.803 and 2.07 and 1.592 | 3.981 and 7.325 and 13.535 | -1.274 and 4.936 and 3.025 | 10.6688 and 9.713 and 2.07 | 4.936 and 4.4586 and 8.758 | 21.1783 and 12.5796 and 14.9681 | 46.9745 and 43.6306 and 45.5414 | 57.4841 and 67.9936 and 66.5605 | 93.3121 and 95.2229 and 92.8344 | 57.2 | – | – |
| CC(=O)C(=NNc1ccccc1C(=O)O)C(=O)N1CCc2ccccc2C1 [S3-17] | 6.74 µM | 4.167 and -4.167 and 1.19 | 7.7381 and 11.9048 and 8.036 | 13.9881 and 14.2857 and 19.3452 | 22.9167 and 21.7262 and 26.4881 | 30.3571 and 29.4643 and 30.6548 | 35.1191 and 33.0357 and 33.6309 | 38.6905 and 40.1786 and 34.5238 | 50.8929 and 50 and 48.8095 | 63.3929 and 63.6905 and 75.5952 | 82.1 | – | – |
| CCOC(=O)c1sc(NC(=O)C(=NNc2ccccc2C(=O)O)C(=O)OC(C)C)nc1C [S3-22] | 0.4 µM | 1.224 and 0.8568 and 0.4896 | 0.8568 and 1.958 and 3.427 | 4.896 and 10.0367 and 5.263 | 26.1934 and 25.0918 and 21.4198 | 44.1861 and 41.6157 and 42.7173 | 58.8739 and 65.1163 and 60.7099 | 88.2497 and 86.7809 and 89.3513 | 100 | 100 | 81.2 | – | – |
| GST tag recombinant rat sRANKL (GST-sRANKL) (ligand, UniProt Q9ESE2 160-318, looked up, also called soluble RANKL; source: E. coli BL21 (DE3), purified (glutathione sepharose, Superdex 200 Increase)) KPEAQPFAHLTINAADIPSGSHKVSLSSWYHDRGWAKISNMTLSNGKLRVNQDGFYYLYANICFRHHETSGSVPADYLQLMVYVVKTSIKIPSSHNLMKGGSTKNWSGNSEFHFYSINVGGFFKLRAGEEISVQVSNPSLLDPDQDATYFGAFKVQDID | – | – | – | – | – | – | – | – | – | – | – | – | binds |
